Experimental data taken from patent publication US20240208992A1, “MACROCYCLES AS CFTR MODULATORS” (Idorsia Pharmaceuticals Ltd, priority 2021, published 2024).

Target: human F508del-CFTR (Homo sapiens, UniProt P13569, DEL508-508)
Test: F508del-CFTR cell surface expression (corrector activity), DiscoveRx ß-galactosidase complementation chemiluminescence assay in recombinant U2OS cell line;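 note: U2OS cells co-expressing ProLink-tagged F508del-CFTR and a membrane-anchored enzyme acceptor, where more surface CFTR restores β-galactosidase activity measured by chemiluminescence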
Conditions: for EC50: EC50, F508del-CFTR cell surface expression; for Emax: U2OS
[1] = U2OS cell line, 16h compound incubation, geomean values
[2] = in relation to the Emax of the corrector lumacaftor (=100%), U2OS cell line, 16h compound incubation, arithmetic mean values
[3] = U2OS cells, 16h compound incubation, geomean values
[4] = in relation to Emax of corrector lumacaftor (=100%), arithmetic mean values
[5] = U2OS cells, 16h compound incubation, geomean of several measurements
[6] = in relation to the Emax of the corrector lumacaftor (=100%), U2OS cells, 16h compound incubation, arithmetic mean

Sequence of human F508del-CFTR (P13569 with tags, fused parts or gaps DEL508-508): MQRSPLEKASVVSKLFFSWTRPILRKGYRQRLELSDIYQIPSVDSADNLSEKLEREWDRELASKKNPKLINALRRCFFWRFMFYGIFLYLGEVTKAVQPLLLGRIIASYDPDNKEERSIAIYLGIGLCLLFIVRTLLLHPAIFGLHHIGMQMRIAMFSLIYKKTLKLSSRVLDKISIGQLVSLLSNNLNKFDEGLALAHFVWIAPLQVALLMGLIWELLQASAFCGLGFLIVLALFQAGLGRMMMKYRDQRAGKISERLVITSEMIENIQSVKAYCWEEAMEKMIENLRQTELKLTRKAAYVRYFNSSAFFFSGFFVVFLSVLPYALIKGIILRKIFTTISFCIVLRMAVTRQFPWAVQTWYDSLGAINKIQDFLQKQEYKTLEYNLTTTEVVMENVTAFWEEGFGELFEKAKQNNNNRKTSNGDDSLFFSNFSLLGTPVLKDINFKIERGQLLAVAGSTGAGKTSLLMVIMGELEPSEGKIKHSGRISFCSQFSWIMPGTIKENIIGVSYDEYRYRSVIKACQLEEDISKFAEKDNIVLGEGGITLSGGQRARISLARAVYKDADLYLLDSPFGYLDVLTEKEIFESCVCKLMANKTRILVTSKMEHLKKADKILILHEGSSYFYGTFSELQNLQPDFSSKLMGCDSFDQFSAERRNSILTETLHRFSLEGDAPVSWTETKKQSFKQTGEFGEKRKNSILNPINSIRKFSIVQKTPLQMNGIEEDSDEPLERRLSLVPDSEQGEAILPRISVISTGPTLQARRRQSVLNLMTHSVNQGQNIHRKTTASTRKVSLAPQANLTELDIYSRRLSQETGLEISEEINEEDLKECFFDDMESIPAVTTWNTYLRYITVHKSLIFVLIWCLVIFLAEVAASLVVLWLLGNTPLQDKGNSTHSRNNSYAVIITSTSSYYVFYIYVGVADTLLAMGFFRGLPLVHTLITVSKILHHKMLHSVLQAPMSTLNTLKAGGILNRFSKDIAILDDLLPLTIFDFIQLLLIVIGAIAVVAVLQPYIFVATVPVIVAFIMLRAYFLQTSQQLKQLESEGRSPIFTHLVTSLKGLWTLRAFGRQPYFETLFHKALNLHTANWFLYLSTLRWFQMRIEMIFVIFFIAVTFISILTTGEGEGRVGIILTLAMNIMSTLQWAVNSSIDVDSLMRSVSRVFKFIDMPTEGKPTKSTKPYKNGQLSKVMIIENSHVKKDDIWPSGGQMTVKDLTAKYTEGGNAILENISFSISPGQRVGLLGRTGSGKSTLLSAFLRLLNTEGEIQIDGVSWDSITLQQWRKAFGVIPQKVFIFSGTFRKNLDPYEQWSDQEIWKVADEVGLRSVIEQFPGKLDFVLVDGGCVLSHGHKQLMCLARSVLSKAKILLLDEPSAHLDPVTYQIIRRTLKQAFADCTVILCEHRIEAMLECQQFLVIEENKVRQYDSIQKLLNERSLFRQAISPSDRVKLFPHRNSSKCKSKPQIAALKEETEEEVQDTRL

`CC(C)C[C@H]1C(=O)N(C)C2(CC2)C(=O)N[C@H](Cc2ccccc2)COc2cnc3ccccc3c2C(=O)N[C@H](C(=O)NCC(F)(F)c2ccccc2)CC(=O)N1C` [Example 145, (3′S,7′S,13′R)-13′-benzyl-N-(2,2-difluoro-2-phenylethyl)-7′-isobutyl-6′,9′-dimethyl-1′,5′,8′,11′-tetraoxo-2′,3′,4′,5′,6′,7′,8′,9′,11′,12′,13′,14′-dodecahydro-1′H-spiro[cyclopropane-1,10′-[1]oxa[4,7,10,14]tetraazacycloheptadecino[17,16-c]quinoline]-3′-carboxamide] was tested, and the EC50 [1] was 309 nM and the Emax [2] was 107%.

`CC(C)C[C@H]1C(=O)N(C)C2(CC2)C(=O)N[C@H](Cc2ccccc2)COc2cnc3ccc(F)cc3c2C(=O)N[C@H](C(=O)NCCn2cc(Br)cn2)CC(=O)N1C` [Example 173, (3′S,7′S,13′R)-13′-benzyl-N-(2-(4-bromo-1H-pyrazol-1-yl)ethyl)-20′-fluoro-7′-isobutyl-6′,9′-dimethyl-1′,5′,8′,11′-tetraoxo-2′,3′,4′,5′,6′,7′,8′,9′,11′,12′,13′,14′-dodecahydro-1′H-spiro[cyclopropane-1,10′-[1]oxa[4,7,10,14]tetraazacycloheptadecino[17,16-c]quinoline]-3′-carboxamide] was tested, and the EC50 [1] was 455 nM and the Emax [2] was 212%.

`Cc1cc(CCNC(=O)[C@@H]2CC(=O)N(C)[C@@H](CC(C)C)C(=O)N3CCNC[C@@H]3C(=O)N[C@H](Cc3ccccc3)COc3ccc4ccccc4c3C(=O)N2)on1` [Example 725, (4aR,7R,18S,22S)-7-Benzyl-22-isobutyl-21-methyl-N-(2-(3-methylisoxazol-5-yl)ethyl)-5,16,20,23-tetraoxo-2,3,4,4a,5,6,7,8,16,17,18,19,20,21,22,23-hexadecahydro-1H-naphtho[1,2-p]pyrazino[2,1-f][1]oxa[4,7,10,14]tetraazacycloheptadecine-18-carboxamide] showed an EC50 [3] of 1370 nM and an Emax [4] of 200%.

`COc1cccc(CCNC(=O)[C@@H]2CC(=O)N(C)[C@@H](CC3CCCCC3)C(=O)N(CCC3CCCCC3)CC(=O)N[C@H](Cc3ccccc3)COc3ccc4ccccc4c3C(=O)N2)c1` (racemic) [Example 301, (3RS,7S,13R)-13-benzyl-9-(2-cyclohexylethyl)-7-(cyclohexylmethyl)-N-(3-methoxyphenethyl)-6-methyl-1,5,8,11-tetraoxo-1,2,3,4,5,6,7,8,9,10,11,12,13,14-tetradecahydronaphtho[1,2-p][1]oxa[4,7,10,14]tetraazacycloheptadecine-3-carboxamide] was tested, and the Emax [2] was 202%.

Work on `COc1cccc(CCNC(=O)[C@@H]2CC(=O)N(C)[C@@H](CC(C)C)C(=O)N3CCN([S@@](=N)(=O)c4ccccc4)C[C@@H]3C(=O)N[C@H](Cc3ccccc3)COc3ccc4ccccc4c3C(=O)N2)c1` [Example 758, (4aR,7R,18S,22S)-7-Benzyl-22-isobutyl-N-(3-methoxyphenethyl)-21-methyl-5,16,20,23-tetraoxo-3-(phenylsulfonimidoyl)-2,3,4,4a,5,6,7,8,16,17,18,19,20,21,22,23-hexadecahydro-1H-naphtho[1,2-p]pyrazino[2,1-f][1]oxa[4,7,10,14]tetraazacycloheptadecine-18-carboxamide] yielded an EC50 [3] of 334 nM and an Emax [4] of 266%.

Compound `COc1ccc(CCNC(=O)[C@@H]2CC(=O)N(C)[C@@H](CC(C)C)C(=O)N(CCC3CCCCC3)CC(=O)N[C@H](Cc3ccccc3)COc3cccc(OC)c3C(=O)N2)nc1` [Example 207, (3R,9S,13S)-3-benzyl-7-(2-cyclohexylethyl)-9-isobutyl-16-methoxy-N-(2-(5-methoxypyridin-2-yl)ethyl)-10-methyl-5,8,11,15-tetraoxo-2,3,4,5,6,7,8,9,10,11,12,13,14,15-tetradecahydrobenzo[p][1]oxa[4,7,10,14]tetraazacycloheptadecine-13-carboxamide] has an EC50 [1] of 317 nM and an Emax [2] of 138%.

`CC(C)C[C@H]1C(=O)N2CCOC[C@@H]2C(=O)N[C@H](Cc2ccccc2)COc2cnc3ccccc3c2C(=O)N[C@H](C(=O)NCCc2cc(C(F)(F)F)no2)CC(=O)N1C` [Example 221, (9S,13S,19aR,22R)-22-benzyl-13-isobutyl-12-methyl-7,11,14,20-tetraoxo-N-(2-(3-(trifluoromethyl)isoxazol-5-yl)ethyl)-7,8,9,10,11,12,13,14,16,17,19,19a,20,21,22,23-hexadecahydro-[1,4]oxazino[3′,4′:6,7][1]oxa[4,7,10,14]tetraazacycloheptadecino[17,16-c]quinoline-9-carboxamide] gave an EC50 [1] of 833 nM and an Emax [2] of 229%.

Work on `COc1cc(CCNC(=O)[C@@H]2CC(=O)N(C)[C@@H](CC(C)C)C(=O)N(C)C3(CC3)C(=O)N[C@H](Cc3ccccc3)COc3ccc4ncc(F)cc4c3C(=O)N2)on1` [Example 818, (3′S,7′S,13′R)-13′-benzyl-20′-fluoro-7′-isobutyl-N-(2-(3-methoxyisoxazol-5-yl)ethyl)-6′,9′-dimethyl-1′,5′,8′,11′-tetraoxo-2′,3′,4′,5′,6′,7′,8′,9′,11′,12′,13′,14′-dodecahydro-1′H-spiro[cyclopropane-1,10′-[1]oxa[4,7,10,14]tetraazacycloheptadecino[16,17-f]quinoline]-3′-carboxamide] yielded an EC50 [5] of 385 nM and an Emax [6] of 359%.

`COc1cc2c(c(OC)n1)C(=O)N[C@H](C(=O)NCCc1cc(C)no1)CC(=O)N(C)[C@@H](CC(C)C)C(=O)N1CCCC[C@@H]1C(=O)N[C@H](Cc1ccccc1)CO2` [Example 869, (7S,11S,17aR,20R)-20-benzyl-11-isobutyl-2,4-dimethoxy-10-methyl-N-(2-(3-methylisoxazol-5-yl)ethyl)-5,9,12,18-tetraoxo-5,6,7,8,9,10,11,12,15,16,17,17a,18,19,20,21-hexadecahydro-14H-dipyrido[2,1-f:3′,4′-p][1]oxa[4,7,10,14]tetraazacycloheptadecine-7-carboxamide] was tested, and the EC50 [5] was 358 nM and the Emax [6] was 305%.

Work on `COc1cccc(CCNC(=O)[C@@H]2CC(=O)N(C)[C@@H](CC(C)C)C(=O)N(C)CC(=O)N[C@H](Cc3ccccc3)COc3ccc(Cl)cc3C(=O)N2)c1` [Example 237, (3R,9S,13S)-3-benzyl-17-chloro-9-isobutyl-N-(3-methoxyphenethyl)-7,10-dimethyl-5,8,11,15-tetraoxo-2,3,4,5,6,7,8,9,10,11,12,13,14,15-tetradecahydrobenzo[p][1]oxa[4,7,10,14]tetraazacycloheptadecine-13-carboxamide] yielded an EC50 [1] of 300 nM and an Emax [2] of 128%.

`Cc1cc2c3c(ccc2cn1)OC[C@@H](Cc1ccccc1)NC(=O)[C@@H](CC(F)(F)F)N(C)C(=O)[C@H](CC(C)C)N(C)C(=O)C[C@@H](C(=O)NCCc1noc(C2CC2)n1)NC3=O` [Example 950, (3S,7S,10R,13R)-13-benzyl-N-(2-(5-cyclopropyl-1,2,4-oxadiazol-3-yl)ethyl)-7-isobutyl-6,9,20-trimethyl-1,5,8,11-tetraoxo-10-(2,2,2-trifluoroethyl)-1,2,3,4,5,6,7,8,9,10,11,12,13,14-tetradecahydro-[1]oxa[4,7,10,14]tetraazacycloheptadecino[16,17-f]isoquinoline-3-carboxamide] was tested, and the EC50 [5] was 201 nM and the Emax [6] was 464%.
